SMILES	melting point [°C]
Cc1cc(C2=NN[C@H](C)Cc3cc4c(cc32)OCO4)ccc1N	193 to 196
COc1ccc(C2=NCC(NN)=Nc3ccc(Cl)cc32)cc1	213 to 215
Clc1ccc2[nH]c(SCc3nc4ccccc4s3)nc2c1	176 to 180
NC1=C(C(=O)c2ccc(Cl)cc2Cl)OC2N=C(O)C=CC12 (stereo not given)	> 305
CCCCc1[nH]c2ccc([N+](=O)[O-])cc2c1C(=O)c1ccc(O)cc1	230
CNC(=O)CN(c1ccc(Cl)cc1Cc1c(F)cccc1F)S(=O)(=O)c1ccc(OC)c(OC)c1	92.9
CC(C)(C)c1cc(O)n[nH]1	205 to 206
CN1CCNCCNCCNCCNCC1	71 to 72.5
O=C1CN=C2C(=O)CC=CC2=N1	208 to 211
CCCc1nc2ccccc2n1Cc1ccc(-c2ncccc2C(=O)O)cc1	238 to 239
CCOc1cc(C=CC(=O)OC)ccc1OCc1coc(-c2ccccc2)n1	125 to 126
CC(=O)ON=C(N)c1ccc(C(=O)N2CCN(C(=O)[C@@H]3CCCN3S(=O)(=O)c3ccc(Cl)c(COc4cccc5ncc(C)nc45)c3Cl)CC2)cc1	161 to 165
CCOC(=O)c1cc(=O)c2c(OCC(O)COc3cccc(C(F)(F)F)c3)cccc2o1 (stereo not given)	70 to 75
COc1ccc(CC2(C)CN(C(c3ccccc3)c3ccccc3)CCN2)cc1OC (stereo not given)	123
CC(Cc1ccccc1C(=O)O)c1cccs1 (stereo not given)	66 to 68
Fc1cccc2c1CN(C1=NCCO1)C2	125 to 129
O=c1c(Br)cc(Cc2ccccc2)cn1Cc1ccccc1	89 to 90
CCC(=O)Nc1nc(CN2CCC(c3c[nH]c4ccccc34)CC2)cs1	192 to 195
C=CCNc1nc(NCCCCCCCCC)c2scc(C)c2n1	65 to 66
CCOC(=O)C(=O)c1ccc(OCCOc2ccc3ccccc3c2)s1	98 to 100
CS(=O)(=O)c1ccc(-c2cnn(Cc3ccccc3C(F)(F)F)c(=O)c2-c2ccc(F)cc2)cc1	87 to 90
CCOC(=O)N1CCN(C(=O)c2sc(NC(C)=O)nc2CCc2ccc(NC(=N)N)cc2)CC1	180 to 182
O=C1Nc2c(cc([N+](=O)[O-])cc2[N+](=O)[O-])C1c1ncnc2nn(C3CCCC3)cc12 (stereo not given)	> 300
CCOC(=O)c1cn(NC)c2cc3c(cc2c1=O)OCO3	211 to 218
Cc1ccccc1C1c2ccccc2S(=O)(=O)N1C (single isomer, unassigned; (+))	152

SMILES	melting point [°C]
Cc1nc(-c2ccccc2)nc(-c2ccncc2)c1C(=O)O	270 to 271
Nc1c(F)cc(I)cc1Cl	85 to 87
O=[N+]([O-])c1cccc(SC(CCl)S(=O)(=O)c2cccc([N+](=O)[O-])c2)c1 (stereo not given)	98 to 110
O=c1[nH]c2cc(-c3ccncc3)c(C(F)(F)F)nc2[nH]1	> 300
IC(I)=C(I)Cn1ncnn1	92 to 93
CC(C(=O)N(C)C)n1cc(-c2ccccc2)c(-c2ccccc2)n1 (stereo not given)	122 to 124
C/C=C/CC(=O)N[C@H]1CC[C@H](CCN2CCN(c3nccc4c3CCO4)CC2)CC1	176
OC[C@H](O)COc1ccccc1OCC1CC1	95 to 97
O=C(NC1CCOCC1)c1ccc(-c2cc(-c3c(-c4cccc(Cl)c4)nc4ccccn34)ccn2)cc1	234
NC1=NN(c2nc3ccccc3s2)C(c2ccccc2)C1 (stereo not given)	270 to 272
CC(NC(=O)OCc1ccccc1)C(=O)NCCc1ccccc1 (stereo not given)	125 to 126
CN(C(=O)c1ccc(-c2ccccc2)cc1)C1N(C)C(c2ccc(F)cc2)=NC1(C(F)(F)F)C(F)(F)F (stereo not given)	186 to 187
CCCc1nc2c(C(F)(F)F)cccc2c(O)c1C(=O)O	148
Nc1c(Cl)cc2c3c(cccc13)C(=O)N(O)C2=O	354 to 359
O=C(NO)c1cc2c(Oc3ccc(Cl)cc3)cncc2s1	145
O=C(NC1N=C(c2ccccc2F)c2ccccc2NC1=O)c1ccccc1Cl (racemic)	224
O=C(O)c1cnc(-c2ccc(NC(=O)C(Cl)Cl)cc2)nc1O	> 310
Cc1c(NC(=O)c2cc3c(s2)C(O)CCC3)cccc1-c1cn(C)c(=O)c(Nc2ccc(C3C(=O)N(C)CCN3C)cc2)n1 (stereo not given)	165 to 166
CC(C)(C)C(=O)Oc1ccc(-c2nnn(CCCCC(=O)O)n2)cc1	129 to 131
Fc1ccc(CC2C=CC(OCc3ccccc3)=C3N=C4CCCCC4=C32)cc1 (stereo not given)	134 to 135
COC(=O)C1=C(C)NC(C)=C(C(=O)OCCN2CCN(Cc3ccccc3)CC2)C1c1cccc([N+](=O)[O-])c1 (stereo not given)	106 to 108
Cc1oc(-c2ccco2)nc1/C=C/c1ccc(C=O)cc1	209 to 210
CC(C)(C)C(=O)OCC(CCn1cnc2c(=O)[nH]c(N)nc21)COC(=O)C(C)(C)C	225 to 237
O=C(NCCc1cccc2ccccc12)C(F)(F)F	79 to 80
COc1ccc2cc(S(N)(=O)=O)[nH]c2c1	171 to 172

SMILES	melting point [°C]
Cc1nc(NC(=O)c2ccc(F)cc2Cl)sc1C(=O)NCc1ccccc1	95 to 96
CC(C)(C)OC(=O)NC[C@H]1CN(c2ccc3c(c2)CCCc2cnoc2-3)C(=O)O1	180 to 184
CCCCOc1cc(CCC(=O)O)ccc1-c1cccc(CN(C)C(=O)c2ccc(OC)cc2)c1	39 to 41
CCCCCCCCCCCCCCOc1ccc(N)cc1OCCCCCCCCCCCCCC	55 to 58
Cc1cc(C)c2c(c1C)OC1(CCN(C)CC1)C2c1ccc(C(C)C)cc1 (stereo not given)	63 to 64
CN1C(=O)CN=C(c2cccc(Cl)c2)c2cc(C(=O)c3ccc(Cl)cc3)ccc21	176
CC(C)N1CC(C(=O)c2ccc(Cc3ccc(F)cc3)s2)=C(O)C1=O	138 to 139
Cc1nc2c3c(c(C(=O)NCC(O)CO)cc2n1C)CCC(c1ccccc1)O3 (stereo not given)	268 to 270
O=CN1CCC(Oc2c(F)c(F)c(F)c(F)c2F)CC1	32 to 34
C=C(Cl)Cn1c(C)c(C)c2cnnc(OCc3ccccc3)c21	88 to 90
O=C(OCc1ccccc1)N1CCC(O)(c2ccc(C(F)(F)F)cc2)CC1	102
Cc1cccc(Oc2c[nH]c(=S)[nH]c2=O)c1	210
CC(C)Cc1ccc(N)cc1C#N	68
COc1ccc(-c2c(C(=O)CC(C)C)c(CSc3nccn3C)nc3cc(OC)c(OC)cc23)cc1OC	152 to 153
CCOC(=O)c1ccccc1CN1C(=O)C(CCOc2ccc(CCNC(=O)OC(C)(C)C)cc2)Oc2ccccc21 (stereo not given)	103 to 105
O=C1CCC2=C1C(c1ccc3nonc3c1)C1=C(CCC1=O)N2	272 to 273
COc1cc(Nc2c(C#N)cnc3cc(/C=C/CCCCCCCCCN4CCOCC4)c(OC)cc23)c(Cl)cc1Cl	98 to 99
Cn1ncc2c1-c1c(S(C)(=O)=O)sc(S(=O)(=O)Cl)c1CC2	81 to 82
COc1ccc(-c2cc(COS(C)(=O)=O)c(=O)n(CC=Cc3ccc(Cl)cc3)n2)cc1F	136
O=C(OC(c1ccccc1)c1ccccc1)C(=C(CBr)N1CCOCC1)N1C(=O)C2N=C(Cc3ccccc3)SC21 (stereo not given)	93 to 96
COc1ccc(C(C#N)=Cc2ccc(OC)c(OC3CCCC3)c2)cc1	102 to 105
O=C(O)C1Cc2cc(CCNS(=O)(=O)c3ccccc3)ccc2O1 (stereo not given)	132 to 133
O=CC(CC(=O)O)NC(=O)C1CCCN2C(=O)CCC(NC(=O)c3ccccc3)C(=O)N12 (stereo not given)	143 to 147
CC(=O)c1cccc(NC(=O)C2CC2)c1	136 to 137
CCOC(=O)C(C)(C)OC(=O)c1cc([N+](=O)[O-])ccc1Cl	64 to 66

SMILES	melting point [°C]
NC(=O)c1nc(-c2cccc(O)c2)nc2c1[nH]c(=O)n2-c1ccccc1Oc1ccccc1	329 to 331
CCOC(=O)c1cn(-c2ccccc2)nc1NC=O	135 to 136
N#CCc1cccc2c(-c3ccccc3Cl)nccc12	113
COc1cc(C(C)C)c(Oc2cnc(N[C@H](C)CO)nc2N)cc1Cl	111 to 117
CCCCCCCCCCCCCCOCC(CO)(CO)COCCCCCCCCCCCCCC	63 to 64
O=C1C(=O)N(CCl)c2ccccc21	121 to 123
O=S(=O)(/C=C/c1ccc(F)cc1)CS(=O)(=O)/C=C/c1ccc(F)cc1	183 to 185
CNc1nc(Nc2ccc(Cl)c(Cl)c2)ncc1NP(C)(C)=O	258
CCc1nc2c(N)nc3cc(-c4cncc(CO)c4)ccc3c2n1CC(C)(C)O	> 250
CC=CC(=O)N(CCCC(=O)O)C(C)(C)CC(C)(C)C	92 to 93
CN(C)C(=S)SCC(c1cccc2ccccc12)[N+](=O)[O-] (stereo not given)	136 to 138
O=C(O)c1cc2cc(Br)ccc2nc1N[C@H](Cc1ccccc1)C(=O)O	140 to 141
CCCCCCCCCCCCNc1ncnc2nc[nH]c12	159 to 160
O=S=c1cc(-c2ccc(Cl)cc2)ss1	123 to 125
O=S(=O)(Cc1ccccc1)n1c2cc(O)c(O)cc2c2ccc(O)c(O)c21	216 to 218
OC1CCCc2sccc21 (stereo not given)	58 to 60
Cc1ccc(-c2nc(O)cc(-c3ccccc3)n2)cc1	282 to 283
COC(=O)c1ccc(OC)c([N+](=O)[O-])c1O	185 to 187
CCOC(=O)c1cn(CC)nc1OCc1ccc(OCc2nc(-c3ccco3)oc2C)c(OC)c1	114 to 115
COC(=O)c1ccc(F)cc1OC(=S)N(C)C	107
O=C1NCCc2cc(F)ccc21	107 to 108
Cn1c2c(ccc1=O)C(NCCc1ccc(C(F)(F)F)cc1)CCC2 (stereo not given)	104 to 106
CC(=O)c1ccccc1NC(=O)CN1CCN(CCCC=C(c2ccc(F)cc2)c2ccc(F)cc2)C(C(N)=O)C1 (stereo not given)	111
CNc1nc(Nc2ccccc2C)c2cccc(OC)c2n1	190 to 192
CCOC(=O)CNCc1cc(I)ccc1N	58 to 61

— a melting point compilation (Tetko et al.; mined from patent text by program, amines drawn as free bases though some values may be those of a salt)
